Source: the supplement of paper PMC11451515

How the values were obtained:
Conditions in all cases: 48 h
[1] = system: P12-Ichikawa; assay: cell viability relative to DMSO control; higher = less cytotoxic
Outline: (§1)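 Viability values are per-plate percentages of DMSO wells, with background from cell-free wells. Library compounds in DMSO were pin-dosed, in an 11-point threefold series from 47 μM to 0.79 nM, onto NOMO1 or SEM (500 cells/well) or P12-Ichikawa (1000 cells/well) leukemia cells in 1536-well plates (5 μl). Those cells had been adapted for at least four passages in each medium, and CellTiter-Glo One luminescence was read after 48 h at 37°C.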

[2] = system: NOMO1; assay: as above
Outline: as §1

[3] = system: SEM cells; assay: as above
Outline: as §1

[4] = system: P12-Ichikawa; assay: AUC of viability dose-response curve (% viability x log10 dose units); higher = less sensitive
Outline: (§2)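 Seeding of medium-adapted leukemia cells was at 500 or 1000 cells/well in 1536-well plates, followed by 48 h at 37°C with library compounds in DMSO at 11 threefold doses from 47 μM to 0.79 nM. CellTiter-Glo One luminescence was normalised per plate to DMSO and cell-free wells and fitted as a four-parameter log-logistic function of log10 dose. Area under the curve was integrated by trapezoidal rule, with curves exceeding full viability scaled and curves failing quality control removed.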

[5] = system: NOMO1; assay: as above
Outline: as §2

[6] = system: SEM cells; assay: as above
Outline: as §2

CC(C)c1ccc2c(c1)c(SC(C)(C)C)c(CC(C)(C)C(=O)[O-])n2Cc1ccc(Cl)cc1
cell viability [%]
Conditions	[1]	[2]	[3]
HPLM + 10% dialyzed FBS, 0.000781 µM	98.5	110	104
HPLM + 10% dialyzed FBS, 0.00234 µM	98.9	98.7	96.6
HPLM + 10% dialyzed FBS, 0.00702 µM	99.7	110	107
HPLM + 10% dialyzed FBS, 0.0211 µM	103	104	100
HPLM + 10% dialyzed FBS, 0.0632 µM	97	109	106
HPLM + 10% dialyzed FBS, 0.19 µM	98.4	101	95.3
HPLM + 10% dialyzed FBS, 0.569 µM	94.8	111	103
HPLM + 10% dialyzed FBS, 1.71 µM	93.4	95	101
HPLM + 10% dialyzed FBS, 5.12 µM	90.3	82	106
HPLM + 10% dialyzed FBS, 15.4 µM	87.5	95.1	107
HPLM + 10% dialyzed FBS, 46.1 µM	90.8	87.8	83.2
RPMI 5 mM glucose + 10% FBS, 0.000781 µM	96.3	84.2	101
RPMI 5 mM glucose + 10% FBS, 0.00234 µM	91.5	103	84
RPMI 5 mM glucose + 10% FBS, 0.00702 µM	100	92.8	109
RPMI 5 mM glucose + 10% FBS, 0.0211 µM	96.2	90.4	99.7
RPMI 5 mM glucose + 10% FBS, 0.0632 µM	96	88.9	96.9
RPMI 5 mM glucose + 10% FBS, 0.19 µM	96.3	96.9	102
RPMI 5 mM glucose + 10% FBS, 0.569 µM	92.6	105	89.9
RPMI 5 mM glucose + 10% FBS, 1.71 µM	92.3	87.9	101
RPMI 5 mM glucose + 10% FBS, 5.12 µM	88.2	86.3	93.5
RPMI 5 mM glucose + 10% FBS, 15.4 µM	85.3	85.4	89.5
RPMI 5 mM glucose + 10% FBS, 46.1 µM	89.9	85.1	75
RPMI 5 mM glucose + 10% dialyzed FBS, 0.000781 µM	87	90.5	98.9
RPMI 5 mM glucose + 10% dialyzed FBS, 0.00234 µM	93.6	91.5	103
RPMI 5 mM glucose + 10% dialyzed FBS, 0.00702 µM	90.3	91.9	106
RPMI 5 mM glucose + 10% dialyzed FBS, 0.0211 µM	88.8	91.6	107
RPMI 5 mM glucose + 10% dialyzed FBS, 0.0632 µM	94.8	81.5	97.6
RPMI 5 mM glucose + 10% dialyzed FBS, 0.19 µM	88.3	87.7	104
RPMI 5 mM glucose + 10% dialyzed FBS, 0.569 µM	93.8	79	91.6
RPMI 5 mM glucose + 10% dialyzed FBS, 1.71 µM	89.3	81.4	88.5
RPMI 5 mM glucose + 10% dialyzed FBS, 5.12 µM	81.7	78.5	92.5
RPMI 5 mM glucose + 10% dialyzed FBS, 15.4 µM	82.2	81.6	97.5
RPMI 5 mM glucose + 10% dialyzed FBS, 46.1 µM	84.5	75.5	89.9

AUC of viability dose-response curve
Conditions	[4]	[5]	[6]
HPLM + 10% dialyzed FBS	457	452	473
RPMI 5 mM glucose + 10% FBS	445	436	456
RPMI 5 mM glucose + 10% dialyzed FBS	423	403	455

CC[C@]12CC[C@H]3[C@@H](CCC/4=C/C(=O)CC[C@H]34)[C@@H]1\C=C/[C@@]2(O)C#C
cell viability [%]
Conditions	[1]	[2]	[3]
HPLM + 10% dialyzed FBS, 0.000781 µM	109	118	78.9
HPLM + 10% dialyzed FBS, 0.00234 µM	124	116	96.1
HPLM + 10% dialyzed FBS, 0.00702 µM	124	132	106
HPLM + 10% dialyzed FBS, 0.0211 µM	125	133	102
HPLM + 10% dialyzed FBS, 0.0632 µM	132	128	111
HPLM + 10% dialyzed FBS, 0.19 µM	129	113	108
HPLM + 10% dialyzed FBS, 0.569 µM	128	137	115
HPLM + 10% dialyzed FBS, 1.71 µM	120	146	109
HPLM + 10% dialyzed FBS, 5.12 µM	122	133	127
HPLM + 10% dialyzed FBS, 15.4 µM	123	138	110
HPLM + 10% dialyzed FBS, 46.1 µM	119	124	121
RPMI 5 mM glucose + 10% FBS, 0.000781 µM	–	110	110
RPMI 5 mM glucose + 10% FBS, 0.00234 µM	–	120	107
RPMI 5 mM glucose + 10% FBS, 0.00702 µM	–	120	119
RPMI 5 mM glucose + 10% FBS, 0.0211 µM	–	123	123
RPMI 5 mM glucose + 10% FBS, 0.0632 µM	–	122	131
RPMI 5 mM glucose + 10% FBS, 0.19 µM	–	138	117
RPMI 5 mM glucose + 10% FBS, 0.569 µM	–	133	106
RPMI 5 mM glucose + 10% FBS, 1.71 µM	–	121	124
RPMI 5 mM glucose + 10% FBS, 5.12 µM	–	112	116
RPMI 5 mM glucose + 10% FBS, 15.4 µM	–	130	125
RPMI 5 mM glucose + 10% FBS, 46.1 µM	–	139	116
RPMI 5 mM glucose + 10% dialyzed FBS, 0.000781 µM	106	116	113
RPMI 5 mM glucose + 10% dialyzed FBS, 0.00234 µM	110	133	110
RPMI 5 mM glucose + 10% dialyzed FBS, 0.00702 µM	121	122	108
RPMI 5 mM glucose + 10% dialyzed FBS, 0.0211 µM	115	124	115
RPMI 5 mM glucose + 10% dialyzed FBS, 0.0632 µM	119	126	116
RPMI 5 mM glucose + 10% dialyzed FBS, 0.19 µM	114	111	120
RPMI 5 mM glucose + 10% dialyzed FBS, 0.569 µM	124	137	109
RPMI 5 mM glucose + 10% dialyzed FBS, 1.71 µM	123	133	118
RPMI 5 mM glucose + 10% dialyzed FBS, 5.12 µM	118	138	115
RPMI 5 mM glucose + 10% dialyzed FBS, 15.4 µM	113	140	118
RPMI 5 mM glucose + 10% dialyzed FBS, 46.1 µM	116	132	118

AUC of viability dose-response curve
Conditions	[4]	[5]	[6]
HPLM + 10% dialyzed FBS	473	461	446
RPMI 5 mM glucose + 10% FBS	473	451	465
RPMI 5 mM glucose + 10% dialyzed FBS	470	450	464

C[C@H]1COC2=C3N1\C=C(C(O)=O)/C(=O)C3=CC(=C2N4CCN(C)CC4)F
cell viability [%]
Conditions	[1]	[2]	[3]
HPLM + 10% dialyzed FBS, 0.000781 µM	117	124	102
HPLM + 10% dialyzed FBS, 0.00234 µM	116	123	117
HPLM + 10% dialyzed FBS, 0.00702 µM	121	128	117
HPLM + 10% dialyzed FBS, 0.0211 µM	116	114	108
HPLM + 10% dialyzed FBS, 0.0632 µM	109	122	106
HPLM + 10% dialyzed FBS, 0.19 µM	113	106	110
HPLM + 10% dialyzed FBS, 0.569 µM	97.2	113	92.9
HPLM + 10% dialyzed FBS, 1.71 µM	109	108	68.7
HPLM + 10% dialyzed FBS, 5.12 µM	92.7	94.8	68.2
HPLM + 10% dialyzed FBS, 15.4 µM	85.6	85.9	65.4
HPLM + 10% dialyzed FBS, 46.1 µM	82.9	61	52.7
RPMI 5 mM glucose + 10% FBS, 0.000781 µM	111	–	105
RPMI 5 mM glucose + 10% FBS, 0.00234 µM	113	–	115
RPMI 5 mM glucose + 10% FBS, 0.00702 µM	117	–	102
RPMI 5 mM glucose + 10% FBS, 0.0211 µM	120	–	115
RPMI 5 mM glucose + 10% FBS, 0.0632 µM	98.2	–	90.6
RPMI 5 mM glucose + 10% FBS, 0.19 µM	116	–	81.4
RPMI 5 mM glucose + 10% FBS, 0.569 µM	98.6	–	94.7
RPMI 5 mM glucose + 10% FBS, 1.71 µM	103	–	73.4
RPMI 5 mM glucose + 10% FBS, 5.12 µM	84.2	–	63.6
RPMI 5 mM glucose + 10% FBS, 15.4 µM	62.5	–	58.6
RPMI 5 mM glucose + 10% FBS, 46.1 µM	70.4	–	31.9
RPMI 5 mM glucose + 10% dialyzed FBS, 0.000781 µM	109	122	90
RPMI 5 mM glucose + 10% dialyzed FBS, 0.00234 µM	111	112	109
RPMI 5 mM glucose + 10% dialyzed FBS, 0.00702 µM	114	127	112
RPMI 5 mM glucose + 10% dialyzed FBS, 0.0211 µM	118	124	99.1
RPMI 5 mM glucose + 10% dialyzed FBS, 0.0632 µM	108	124	90.2
RPMI 5 mM glucose + 10% dialyzed FBS, 0.19 µM	112	115	96.4
RPMI 5 mM glucose + 10% dialyzed FBS, 0.569 µM	91.7	112	88.7
RPMI 5 mM glucose + 10% dialyzed FBS, 1.71 µM	94.7	112	64.1
RPMI 5 mM glucose + 10% dialyzed FBS, 5.12 µM	82.4	98.1	76.9
RPMI 5 mM glucose + 10% dialyzed FBS, 15.4 µM	74.2	98.7	70.4
RPMI 5 mM glucose + 10% dialyzed FBS, 46.1 µM	62.6	72.9	69.4

AUC of viability dose-response curve
Conditions	[4]	[5]	[6]
HPLM + 10% dialyzed FBS	427	426	398
RPMI 5 mM glucose + 10% FBS	429	454	373
RPMI 5 mM glucose + 10% dialyzed FBS	416	441	420
